Measurements from PubChem BioAssay (NCI).
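Briefly, cells in 96-well plates were exposed to five compound concentrations for 48 h, and endpoints were estimated by linear interpolation. At the GI50, growth is halved. The concentration for full growth arrest is given as TGI.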

Assays:
Experiment in all cases: NCI-60 cell line screen, 48 h; in the data active means GI50 below about 0.43 µM; inactive means the rest
786-0 renal = tested on: 786-0 renal
A498 renal = tested on: A498 renal
A549 NSCLC = tested on: A549 NSCLC
ACHN renal = tested on: ACHN renal
BT-549 breast = tested on: BT-549 breast
CAKI-1 renal = tested on: CAKI-1 renal
CCRF-CEM leukemia = tested on: CCRF-CEM leukemia
COLO 205 colon = tested on: COLO 205 colon
DU-145 prostate = tested on: DU-145 prostate
EKVX NSCLC = tested on: EKVX NSCLC
HCC-2998 colon = tested on: HCC-2998 colon
HCT-116 colon = tested on: HCT-116 colon
HCT-15 colon = tested on: HCT-15 colon
HL-60(TB) leukemia = tested on: HL-60(TB) leukemia
HOP-62 NSCLC = tested on: HOP-62 NSCLC
HOP-92 NSCLC = tested on: HOP-92 NSCLC
HS 578T breast = tested on: HS 578T breast
HT29 colon = tested on: HT29 colon
IGROV1 ovarian = tested on: IGROV1 ovarian
K-562 leukemia = tested on: K-562 leukemia
KM12 colon = tested on: KM12 colon
LOX IMVI melanoma = tested on: LOX IMVI melanoma
M14 melanoma = tested on: M14 melanoma
MALME-3M melanoma = tested on: MALME-3M melanoma
MCF7 breast = tested on: MCF7 breast
MDA-MB-231 breast = tested on: MDA-MB-231 breast
MDA-MB-435 = tested on: MDA-MB-435
MDA-MB-468 breast = tested on: MDA-MB-468 breast
MOLT-4 leukemia = tested on: MOLT-4 leukemia
NCI-H226 lung = tested on: NCI-H226 lung
NCI-H23 lung = tested on: NCI-H23 lung
NCI-H460 lung = tested on: NCI-H460 lung
NCI-H522 lung = tested on: NCI-H522 lung
NCI/ADR-RES ovarian = tested on: NCI/ADR-RES ovarian
OVCAR-3 ovarian = tested on: OVCAR-3 ovarian
OVCAR-4 ovarian = tested on: OVCAR-4 ovarian
OVCAR-5 ovarian = tested on: OVCAR-5 ovarian
OVCAR-8 ovarian = tested on: OVCAR-8 ovarian
PC-3 prostate = tested on: PC-3 prostate
RPMI-8226 leukemia = tested on: RPMI-8226 leukemia
RXF 393 renal = tested on: RXF 393 renal
SF-268 CNS = tested on: SF-268 CNS
SF-295 CNS = tested on: SF-295 CNS
SF-539 CNS = tested on: SF-539 CNS
SK-MEL-2 melanoma = tested on: SK-MEL-2 melanoma
SK-MEL-28 melanoma = tested on: SK-MEL-28 melanoma
SK-MEL-5 melanoma = tested on: SK-MEL-5 melanoma
SK-OV-3 ovarian = tested on: SK-OV-3 ovarian
SN12C renal = tested on: SN12C renal
SNB-19 CNS = tested on: SNB-19 CNS
SNB-75 CNS = tested on: SNB-75 CNS
SR leukemia = tested on: SR leukemia
SW-620 colon = tested on: SW-620 colon
T-47D breast = tested on: T-47D breast
TK-10 renal = tested on: TK-10 renal
U251 CNS = tested on: U251 CNS
UACC-257 melanoma = tested on: UACC-257 melanoma
UACC-62 melanoma = tested on: UACC-62 melanoma
UO-31 renal = tested on: UO-31 renal

Cc1ccc(-c2nc(C#N)c(S(=O)(=O)N3CCN(S(C)(=O)=O)CC3)o2)cc1
26 µM: TGI (SR leukemia)
6.92 µM: TGI (SW-620 colon)
5.94 µM: TGI (NCI-H522 lung)
37 µM: TGI (MOLT-4 leukemia)
> 100 µM: TGI (786-0 renal) | TGI (A498 renal) | TGI (A549 NSCLC) | TGI (ACHN renal) | TGI (BT-549 breast) | TGI (CAKI-1 renal) | TGI (CCRF-CEM leukemia) | TGI (COLO 205 colon) | TGI (DU-145 prostate) | TGI (EKVX NSCLC) | TGI (HCC-2998 colon) | TGI (HL-60(TB) leukemia) | TGI (HOP-62 NSCLC) | TGI (HOP-92 NSCLC) | TGI (HS 578T breast) | TGI (HT29 colon) | TGI (IGROV1 ovarian) | TGI (K-562 leukemia) | TGI (KM12 colon) | TGI (M14 melanoma) | TGI (MALME-3M melanoma) | TGI (MCF7 breast) | TGI (MDA-MB-231 breast) | TGI (MDA-MB-435) | TGI (MDA-MB-468 breast) | TGI (NCI-H226 lung) | TGI (NCI-H23 lung) | TGI (NCI-H460 lung) | TGI (NCI/ADR-RES ovarian) | TGI (OVCAR-3 ovarian) | TGI (OVCAR-4 ovarian) | TGI (OVCAR-5 ovarian) | TGI (OVCAR-8 ovarian) | TGI (PC-3 prostate) | TGI (RPMI-8226 leukemia) | TGI (RXF 393 renal) | TGI (SF-268 CNS) | TGI (SF-295 CNS) | TGI (SF-539 CNS) | TGI (SK-MEL-2 melanoma) | TGI (SK-MEL-28 melanoma) | TGI (SK-MEL-5 melanoma) | TGI (SK-OV-3 ovarian) | TGI (SN12C renal) | TGI (SNB-19 CNS) | TGI (SNB-75 CNS) | TGI (T-47D breast) | TGI (TK-10 renal) | TGI (U251 CNS) | TGI (UACC-257 melanoma) | TGI (UACC-62 melanoma) | TGI (UO-31 renal)
62.5 µM: TGI (HCT-15 colon)
34.7 µM: TGI (HCT-116 colon)
inactive: GI50 (786-0 renal) 64 µM | GI50 (A498 renal) > 100 µM | GI50 (A549 NSCLC) > 100 µM | GI50 (ACHN renal) 44.1 µM | GI50 (BT-549 breast) 47.4 µM | GI50 (CAKI-1 renal) > 100 µM | GI50 (CCRF-CEM leukemia) 3.83 µM | GI50 (COLO 205 colon) > 100 µM | GI50 (DU-145 prostate) > 100 µM | GI50 (EKVX NSCLC) > 100 µM | GI50 (HCC-2998 colon) 53.8 µM | GI50 (HCT-116 colon) 11.8 µM | GI50 (HCT-15 colon) 3.81 µM | GI50 (HL-60(TB) leukemia) 65.2 µM | GI50 (HOP-62 NSCLC) > 100 µM | GI50 (HOP-92 NSCLC) > 100 µM | GI50 (HS 578T breast) > 100 µM | GI50 (HT29 colon) 37.1 µM | GI50 (IGROV1 ovarian) > 100 µM | GI50 (K-562 leukemia) 6.66 µM | GI50 (KM12 colon) > 100 µM | GI50 (LOX IMVI melanoma) 2.97 µM | GI50 (M14 melanoma) 26.3 µM | GI50 (MALME-3M melanoma) > 100 µM | GI50 (MCF7 breast) 3.74 µM | GI50 (MDA-MB-231 breast) > 100 µM | GI50 (MDA-MB-435) 37.8 µM | GI50 (MDA-MB-468 breast) 28.2 µM | GI50 (MOLT-4 leukemia) 7.61 µM | GI50 (NCI-H226 lung) > 100 µM | GI50 (NCI-H23 lung) 19.3 µM | GI50 (NCI-H460 lung) > 100 µM | GI50 (NCI-H522 lung) 2.17 µM | GI50 (NCI/ADR-RES ovarian) 28 µM | GI50 (OVCAR-3 ovarian) 24.6 µM | GI50 (OVCAR-4 ovarian) > 100 µM | GI50 (OVCAR-5 ovarian) > 100 µM | GI50 (OVCAR-8 ovarian) 23.2 µM | GI50 (PC-3 prostate) > 100 µM | GI50 (RPMI-8226 leukemia) 26.7 µM | GI50 (RXF 393 renal) 75.6 µM | GI50 (SF-268 CNS) > 100 µM | GI50 (SF-295 CNS) 61.7 µM | GI50 (SF-539 CNS) 73.3 µM | GI50 (SK-MEL-2 melanoma) > 100 µM | GI50 (SK-MEL-28 melanoma) > 100 µM | GI50 (SK-MEL-5 melanoma) > 100 µM | GI50 (SK-OV-3 ovarian) > 100 µM | GI50 (SN12C renal) 75.1 µM | GI50 (SNB-19 CNS) > 100 µM | GI50 (SNB-75 CNS) > 100 µM | GI50 (SR leukemia) 3.16 µM | GI50 (SW-620 colon) 2.48 µM | GI50 (T-47D breast) 19.2 µM | GI50 (TK-10 renal) > 100 µM | GI50 (U251 CNS) 51.7 µM | GI50 (UACC-257 melanoma) 60.4 µM | GI50 (UACC-62 melanoma) > 100 µM | GI50 (UO-31 renal) > 100 µM
16 µM: TGI (LOX IMVI melanoma)
